Assays:
Assay in all cases: relative viability (nuclei count vs DMSO), 5 days (fraction); higher = more cells survive
[1] = compound: Cc1ccc2nc(NCCN)c3ncc(C)n3c2c1 + COc1cc2c(Oc3ccc(NC(=O)C4(C(=O)Nc5ccc(F)cc5)CC4)cc3F)ccnc2cc1OCCCN1CCOCC1 [Foretinib] (partner 0.25 µM)
Summary of the method: (§1)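 Relative viability equals treated-well nuclei counts divided by vehicle-well nuclei counts. Counts came from 4× images of lung cancer cell lines grown in 1536-well plates for 5 days after pin-tool dosing on the day after seeding. Dosing used one drug alone or a fixed anchor-drug dose plus five library-drug doses (not always all listed) in √10 steps, and values are medians of duplicate plates.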

[2] = compound: Cc1ccc2nc(NCCN)c3ncc(C)n3c2c1 + CS(=O)(=O)CCNCc1ccc(-c2ccc3ncnc(Nc4ccc(OCc5cccc(F)c5)c(Cl)c4)c3c2)o1 [Lapatinib] (partner 2 µM)
Summary of the method: as §1

[3] = compound: O=C(/C=C/c1ccccc1)NC(NC(=S)Nc1cccc2cccnc12)C(Cl)(Cl)Cl [Salubrinal] + COc1cccc2cc(-c3nc([C@H]4CC[C@H](C(=O)O)CC4)n4ncnc(N)c34)[nH]c12 [OSI-027] (partner 0.5 µM)
Summary of the method: as §1

[4] = compound: O=C(/C=C/c1ccccc1)NC(NC(=S)Nc1cccc2cccnc12)C(Cl)(Cl)Cl [Salubrinal] + NC(=O)Nc1cc(-c2cccc(F)c2)sc1C(=O)N[C@H]1CCCNC1 [AZD7762] (partner 0.2 µM)
Summary of the method: as §1

## NCI-H358
[1]; first compound 0.04 µM
  relative viability: 0.752
[1]; first compound 0.1265 µM
  relative viability: 0.718
[1]; first compound 0.4 µM
  relative viability: 0.635
[1]; first compound 1.265 µM
  relative viability: 0.721
[1]; first compound 4 µM
  relative viability: 0.654
[2]; first compound 0.04 µM
  relative viability: 0.549
[2]; first compound 0.1265 µM
  relative viability: 0.486
[2]; first compound 0.4 µM
  relative viability: 0.434
[2]; first compound 1.265 µM
  relative viability: 0.508
[2]; first compound 4 µM
  relative viability: 0.511
[3]; first compound 0.08 µM
  relative viability: 0.83
[3]; first compound 0.253 µM
  relative viability: 0.74
[3]; first compound 0.8 µM
  relative viability: 0.848
[3]; first compound 2.53 µM
  relative viability: 0.582
[3]; first compound 8 µM
  relative viability: 0.672
[4]; first compound 0.08 µM
  relative viability: 0.583
[4]; first compound 0.253 µM
  relative viability: 0.461
[4]; first compound 0.8 µM
  relative viability: 0.538
[4]; first compound 2.53 µM
  relative viability: 0.561
[4]; first compound 8 µM
  relative viability: 0.459

## NCI-H460
[1]; first compound 0.04 µM
  relative viability: 0.982
[1]; first compound 0.1265 µM
  relative viability: 0.901
[1]; first compound 0.4 µM
  relative viability: 0.955
[1]; first compound 1.265 µM
  relative viability: 0.928
[1]; first compound 4 µM
  relative viability: 0.965
[2]; first compound 0.04 µM
  relative viability: 0.999
[2]; first compound 0.1265 µM
  relative viability: 1
[2]; first compound 0.4 µM
  relative viability: 0.886
[2]; first compound 1.265 µM
  relative viability: 0.898
[2]; first compound 4 µM
  relative viability: 0.745
[3]; first compound 0.08 µM
  relative viability: 1.21
[3]; first compound 0.253 µM
  relative viability: 0.406
[3]; first compound 0.8 µM
  relative viability: 1.03
[3]; first compound 2.53 µM
  relative viability: 0.514
[3]; first compound 8 µM
  relative viability: 0.317
[4]; first compound 0.08 µM
  relative viability: 0.627
[4]; first compound 0.253 µM
  relative viability: 0.546
[4]; first compound 0.8 µM
  relative viability: 0.722
[4]; first compound 2.53 µM
  relative viability: 0.711
[4]; first compound 8 µM
  relative viability: 0.552

## NCI-H596
[1]; first compound 0.04 µM
  relative viability: 0.811
[1]; first compound 0.1265 µM
  relative viability: 0.81
[1]; first compound 0.4 µM
  relative viability: 0.912
[1]; first compound 1.265 µM
  relative viability: 0.889
[1]; first compound 4 µM
  relative viability: 0.7
[2]; first compound 0.04 µM
  relative viability: 1.12
[2]; first compound 0.1265 µM
  relative viability: 1.11
[2]; first compound 0.4 µM
  relative viability: 1.31
[2]; first compound 1.265 µM
  relative viability: 0.962
[2]; first compound 4 µM
  relative viability: 1.05
[3]; first compound 0.08 µM
  relative viability: 0.657
[3]; first compound 0.253 µM
  relative viability: 0.721
[3]; first compound 0.8 µM
  relative viability: 0.793
[3]; first compound 2.53 µM
  relative viability: 0.716
[3]; first compound 8 µM
  relative viability: 0.646
[4]; first compound 0.08 µM
  relative viability: 1.05
[4]; first compound 0.253 µM
  relative viability: 1
[4]; first compound 0.8 µM
  relative viability: 1.07
[4]; first compound 2.53 µM
  relative viability: 1.16
[4]; first compound 8 µM
  relative viability: 0.865

## NCI-H647
[1]; first compound 0.04 µM
  relative viability: 1.06
[1]; first compound 0.1265 µM
  relative viability: 1.18
[1]; first compound 0.4 µM
  relative viability: 1.23
[1]; first compound 1.265 µM
  relative viability: 1.15
[1]; first compound 4 µM
  relative viability: 0.912
[2]; first compound 0.04 µM
  relative viability: 1.08
[2]; first compound 0.1265 µM
  relative viability: 1.02
[2]; first compound 0.4 µM
  relative viability: 0.948
[2]; first compound 1.265 µM
  relative viability: 1.13
[2]; first compound 4 µM
  relative viability: 0.707
[3]; first compound 0.08 µM
  relative viability: 0.76
[3]; first compound 0.253 µM
  relative viability: 0.671
[3]; first compound 0.8 µM
  relative viability: 0.6
[3]; first compound 2.53 µM
  relative viability: 0.638
[3]; first compound 8 µM
  relative viability: 0.604
[4]; first compound 0.08 µM
  relative viability: 0.616
[4]; first compound 0.253 µM
  relative viability: 0.435
[4]; first compound 0.8 µM
  relative viability: 0.487
[4]; first compound 2.53 µM
  relative viability: 0.505
[4]; first compound 8 µM
  relative viability: 0.397

## NCI-H650
[1]; first compound 0.04 µM
  relative viability: 1.09
[1]; first compound 0.1265 µM
  relative viability: 0.937
[1]; first compound 0.4 µM
  relative viability: 1.12
[1]; first compound 1.265 µM
  relative viability: 0.948
[1]; first compound 4 µM
  relative viability: 1
[2]; first compound 0.04 µM
  relative viability: 0.927
[2]; first compound 0.1265 µM
  relative viability: 0.123
[2]; first compound 0.4 µM
  relative viability: 0.645
[2]; first compound 1.265 µM
  relative viability: 0.969
[2]; first compound 4 µM
  relative viability: 0.761
[3]; first compound 0.08 µM
  relative viability: 0.584
[3]; first compound 0.253 µM
  relative viability: 0.554
[3]; first compound 0.8 µM
  relative viability: 0.576
[3]; first compound 2.53 µM
  relative viability: 0.629
[3]; first compound 8 µM
  relative viability: 0.452
[4]; first compound 0.08 µM
  relative viability: 1.01
[4]; first compound 0.253 µM
  relative viability: 1.19
[4]; first compound 0.8 µM
  relative viability: 1.04
[4]; first compound 2.53 µM
  relative viability: 0.953
[4]; first compound 8 µM
  relative viability: 0.883

## NCI-H727
[1]; first compound 0.04 µM
  relative viability: 1.23
[1]; first compound 0.1265 µM
  relative viability: 0.778
[1]; first compound 0.4 µM
  relative viability: 0.894
[1]; first compound 1.265 µM
  relative viability: 0.911
[1]; first compound 4 µM
  relative viability: 1.18
[2]; first compound 0.04 µM
  relative viability: 1.22
[2]; first compound 0.1265 µM
  relative viability: 0.887
[2]; first compound 0.4 µM
  relative viability: 1.19
[2]; first compound 1.265 µM
  relative viability: 0.766
[2]; first compound 4 µM
  relative viability: 0.762
[3]; first compound 0.08 µM
  relative viability: 0.505
[3]; first compound 0.253 µM
  relative viability: 0.621
[3]; first compound 0.8 µM
  relative viability: 0.562
[3]; first compound 2.53 µM
  relative viability: 0.618
[3]; first compound 8 µM
  relative viability: 0.575
[4]; first compound 0.08 µM
  relative viability: 0.574
[4]; first compound 0.253 µM
  relative viability: 0.648
[4]; first compound 0.8 µM
  relative viability: 0.649
[4]; first compound 2.53 µM
  relative viability: 0.583
[4]; first compound 8 µM
  relative viability: 0.584

## NCI-H838
[1]; first compound 0.04 µM
  relative viability: 1.16
[1]; first compound 0.1265 µM
  relative viability: 1.08
[1]; first compound 0.4 µM
  relative viability: 1.04
[1]; first compound 1.265 µM
  relative viability: 1.02
[1]; first compound 4 µM
  relative viability: 0.982
[2]; first compound 0.04 µM
  relative viability: 1.08
[2]; first compound 0.1265 µM
  relative viability: 1.01
[2]; first compound 0.4 µM
  relative viability: 0.919
[2]; first compound 1.265 µM
  relative viability: 0.974
[2]; first compound 4 µM
  relative viability: 0.837
[3]; first compound 0.08 µM
  relative viability: 0.327
[3]; first compound 0.253 µM
  relative viability: 0.402
[3]; first compound 0.8 µM
  relative viability: 0.372
[3]; first compound 2.53 µM
  relative viability: 0.4
[3]; first compound 8 µM
  relative viability: 0.407
[4]; first compound 0.08 µM
  relative viability: 0.961
[4]; first compound 0.253 µM
  relative viability: 0.957
[4]; first compound 0.8 µM
  relative viability: 1.06
[4]; first compound 2.53 µM
  relative viability: 0.962
[4]; first compound 8 µM
  relative viability: 0.951

## NCI-H1355
[1]; first compound 0.04 µM
  relative viability: 1.03
[1]; first compound 0.1265 µM
  relative viability: 0.943
[1]; first compound 0.4 µM
  relative viability: 0.901
[1]; first compound 1.265 µM
  relative viability: 0.977
[1]; first compound 4 µM
  relative viability: 0.978
[2]; first compound 0.04 µM
  relative viability: 1.02
[2]; first compound 0.1265 µM
  relative viability: 0.981
[2]; first compound 0.4 µM
  relative viability: 0.962
[2]; first compound 1.265 µM
  relative viability: 0.952
[2]; first compound 4 µM
  relative viability: 0.988
[3]; first compound 0.08 µM
  relative viability: 0.409
[3]; first compound 0.253 µM
  relative viability: 0.341
[3]; first compound 0.8 µM
  relative viability: 0.505
[3]; first compound 2.53 µM
  relative viability: 0.4
[3]; first compound 8 µM
  relative viability: 0.398
[4]; first compound 0.08 µM
  relative viability: 0.788
[4]; first compound 0.253 µM
  relative viability: 0.711
[4]; first compound 0.8 µM
  relative viability: 0.821
[4]; first compound 2.53 µM
  relative viability: 0.691
[4]; first compound 8 µM
  relative viability: 0.691
